Here are results for 8 compounds from PubChem BioAssay AID1259407 (Chemical Carcinogenesis Research Information System (CCRIS), 2018).

The data set concerns CCRIS mutagenicity, Ames/micronucleus/aberration tests. Kind of data set: CCRIS mutagenicity studies.
The mark [1] stands for this setting: Test System: AMES SALMONELLA TYPHIMURIUM, Strain/Indicator: TA98, Metabolic Activation: NONE, Method: STANDARD PLATE.
Where [2] appears, read: Test System: AMES SALMONELLA TYPHIMURIUM, Strain/Indicator: TA98, Metabolic Activation: RAT, LIVER, S-9, AROCLOR 1254, Method: STANDARD PLATE.
[3] abbreviates: Test System: AMES SALMONELLA TYPHIMURIUM, Strain/Indicator: TA100, Metabolic Activation: NONE, Method: STANDARD PLATE.
The mark [4] stands for this setting: Test System: AMES SALMONELLA TYPHIMURIUM, Strain/Indicator: TA100, Metabolic Activation: RAT, LIVER, S-9, AROCLOR 1254, Method: STANDARD PLATE.
Where [5] appears, read: Test System: AMES SALMONELLA TYPHIMURIUM, Strain/Indicator: TA1535, Metabolic Activation: NONE, Method: STANDARD PLATE.
Where [6] appears, read: Test System: AMES SALMONELLA TYPHIMURIUM, Strain/Indicator: TA1535, Metabolic Activation: RAT, LIVER, S-9, AROCLOR 1254, Method: STANDARD PLATE.
Where [7] appears, read: Test System: AMES SALMONELLA TYPHIMURIUM, Strain/Indicator: TA1538, Metabolic Activation: NONE, Method: STANDARD PLATE.
The mark [8] stands for this setting: Test System: AMES SALMONELLA TYPHIMURIUM, Strain/Indicator: TA1538, Metabolic Activation: RAT, LIVER, S-9, AROCLOR 1254, Method: STANDARD PLATE.
The mark [9] stands for this setting: Test System: AMES SALMONELLA TYPHIMURIUM, Strain/Indicator: TA97, Metabolic Activation: NONE, Method: STANDARD PLATE.
Setting [10] is: Test System: AMES SALMONELLA TYPHIMURIUM, Strain/Indicator: TA97, Metabolic Activation: RAT, LIVER, S-9, AROCLOR 1254, Method: STANDARD PLATE.
Where [11] appears, read: Test System: AMES SALMONELLA TYPHIMURIUM, Strain/Indicator: TA100, Metabolic Activation: NONE, Method: PREINCUBATION
[12] abbreviates: Test System: AMES SALMONELLA TYPHIMURIUM, Strain/Indicator: TA98, Metabolic Activation: NONE, Method: PREINCUBATION

SMILES strings stand for the structures. The source made the active and inactive calls. No rule for the calls is given here.

`CCCCCC(O)CC(=O)CCC1CCC(O)C(OC)C1` (configuration not stated): the mutagenic call is, setting by setting: under setting [1], “inactive; negative”; under setting [2], “inactive; negative”; under setting [3], “inactive; negative”; under setting [4], “active; positive”; under setting [5], “inactive; negative”; under setting [6], “active; positive”. Also, the mutagenic call reads like this: under setting [7], “inactive; negative”; under setting [8], “inactive; negative”.

With `CN(N=O)C(=O)N[C@@H](C=O)[C@@H](O)[C@H](O)[C@H](O)CO`, the mutagenic call by setting is: (End Point: IN VITRO CHROMOSOMAL ABERRATIONS, Test System: CHE CELLS, Metabolic Activation: NONE, Method: FISH (METAPHASE)) “active; positive (structural changes)”; under setting [9], “active; positive”; under setting [10], “inactive; negative”; under setting [1], “inactive; negative”; under setting [2], “inactive; negative”; under setting [3], “active; positive”. The mutagenic call is, setting by setting: under setting [4], “inactive; negative”; under setting [5], “active; positive”; (Test System: CHINESE HAMSTER OVARY, Strain/Indicator: CHO-9 (HPRT), Metabolic Activation: NONE) “active; positive”; (Test System: CHINESE HAMSTER OVARY, Strain/Indicator: CHO-9/OUABAIN, Metabolic Activation: NONE) “active; positive”; (Test System: CHINESE HAMSTER OVARY, Strain/Indicator: CHO-K1-BH4 (HGPRT), Metabolic Activation: NONE, Method: SUSPENSION/PLATE) “active; positive”; (Test System: CHINESE HAMSTER OVARY, Strain/Indicator: EM-C11 (HPRT), Metabolic Activation: NONE) “active; positive”. Moreover, the mutagenic call was “active; positive” (Test System: CHINESE HAMSTER OVARY, Strain/Indicator: EM-C11/OUABAIN, Metabolic Activation: NONE); “active; positive” (Test System: CHINESE HAMSTER V-79, Strain/Indicator: V-79/6-THIOGUANINE, Metabolic Activation: NONE, Method: STANDARD PLATE); “active; positive” (Test System: CHINESE HAMSTER V-79, Strain/Indicator: V-79/8-AZAGUANINE, Metabolic Activation: NONE, Method: STANDARD PLATE); “active; positive” (Test System: E. COLI, Strain/Indicator: WP2 (HCR), Metabolic Activation: NONE, Method: STANDARD PLATE).

On to `c1ccc2c(c1)c1ccccc1c1cc3cnccc3cc21`, for which the mutagenic call was “inactive; negative” under setting [1]; “active; positive” (Test System: AMES SALMONELLA TYPHIMURIUM, Strain/Indicator: TA98, Metabolic Activation: RAT, LIVER, S-9, AROCLOR 1254 (10%), Method: STANDARD PLATE); “active; positive” under setting [2]; “inactive; negative” under setting [3]; “active; positive” (Test System: AMES SALMONELLA TYPHIMURIUM, Strain/Indicator: TA100, Metabolic Activation: RAT, LIVER, S-9, AROCLOR 1254 (10%), Method: STANDARD PLATE); “active; positive” under setting [4].

Regarding `Cc1nc2c(c3[nH]c4ccccc4c13)C(=O)C=CC2=O`, the mutagenic call is “inactive; negative” under setting [9]; “active; positive” under setting [10]; “active; positive” under setting [1]; “active; positive” under setting [2]; “inactive; negative” under setting [3]; “inactive; negative” under setting [4]. Also, the mutagenic call is “inactive; negative” (Test System: AMES SALMONELLA TYPHIMURIUM, Strain/Indicator: TA102, Metabolic Activation: NONE, Method: STANDARD PLATE) and “inactive; negative” (Test System: AMES SALMONELLA TYPHIMURIUM, Strain/Indicator: TA102, Metabolic Activation: RAT, LIVER, S-9, AROCLOR 1254, Method: STANDARD PLATE).

`CC(F)(F)F`: the mutagenic call reads like this: under setting [9], “inactive; negative”; under setting [10], “inactive; negative”; under setting [1], “inactive; negative”; under setting [2], “inactive; negative”; under setting [3], “inactive; negative”; under setting [4], “inactive; negative”. Further, the mutagenic call is “inactive; negative” under setting [5]; “inactive; negative” under setting [6]; “inactive; negative” under setting [7]; “inactive; negative” under setting [8]; “inactive; negative” (Test System: E. COLI, Strain/Indicator: WP2 UVRA (PKM101), Metabolic Activation: NONE, Method: STANDARD PLATE); “inactive; negative” (Test System: E. COLI, Strain/Indicator: WP2 UVRA (PKM101), Metabolic Activation: RAT, LIVER, S-9, AROCLOR 1254, Method: STANDARD PLATE).

Consider `ClC1OC1CBr` (configuration not stated), for which the mutagenic call under setting [11] is “active; positive”.

As to `C1CN2CCN1CC2`, the mutagenic call reads like this: under setting [12], “inactive; negative”; (Test System: AMES SALMONELLA TYPHIMURIUM, Strain/Indicator: TA98, Metabolic Activation: RAT, LIVER, S-9, PCB, Method: PREINCUBATION) “inactive; negative”; under setting [11], “inactive; negative”; (Test System: AMES SALMONELLA TYPHIMURIUM, Strain/Indicator: TA100, Metabolic Activation: RAT, LIVER, S-9, PCB, Method: PREINCUBATION) “inactive; negative”.

As for `C=CCc1ccc(OC)c(OC)c1`, the mutagenic call (Test System: AMES SALMONELLA TYPHIMURIUM, Strain/Indicator: TA98, Metabolic Activation: HAMSTER, LIVER, S-9, AROCLOR 1254, Method: PREINCUBATION) was “inactive; negative”; the mutagenic call under setting [12] is “inactive; negative”; the mutagenic call (Test System: AMES SALMONELLA TYPHIMURIUM, Strain/Indicator: TA98, Metabolic Activation: RAT, LIVER, S-9, AROCLOR 1254, Method: PREINCUBATION) is “inactive; negative”; the mutagenic call (Test System: AMES SALMONELLA TYPHIMURIUM, Strain/Indicator: TA100, Metabolic Activation: HAMSTER, LIVER, S-9, AROCLOR 1254, Method: PREINCUBATION) is “inactive; negative”; the mutagenic call under setting [11] is “inactive; negative”; the mutagenic call (Test System: AMES SALMONELLA TYPHIMURIUM, Strain/Indicator: TA100, Metabolic Activation: RAT, LIVER, S-9, AROCLOR 1254, Method: PREINCUBATION) is “inactive; negative”. Moreover, the mutagenic call is “inactive; negative” (Test System: AMES SALMONELLA TYPHIMURIUM, Strain/Indicator: TA1535, Metabolic Activation: HAMSTER, LIVER, S-9, AROCLOR 1254, Method: PREINCUBATION); “inactive; negative” (Test System: AMES SALMONELLA TYPHIMURIUM, Strain/Indicator: TA1535, Metabolic Activation: NONE, Method: PREINCUBATION); “inactive; negative” (Test System: AMES SALMONELLA TYPHIMURIUM, Strain/Indicator: TA1535, Metabolic Activation: RAT, LIVER, S-9, AROCLOR 1254, Method: PREINCUBATION); “inactive; negative” (Test System: AMES SALMONELLA TYPHIMURIUM, Strain/Indicator: TA1537, Metabolic Activation: HAMSTER, LIVER, S-9, AROCLOR 1254, Method: PREINCUBATION); “inactive; negative” (Test System: AMES SALMONELLA TYPHIMURIUM, Strain/Indicator: TA1537, Metabolic Activation: NONE, Method: PREINCUBATION); “inactive; negative” (Test System: AMES SALMONELLA TYPHIMURIUM, Strain/Indicator: TA1537, Metabolic Activation: RAT, LIVER, S-9, AROCLOR 1254, Method: PREINCUBATION).
